Laboratory results published in US12187653B2, “Surface retarder formulation and method for replicating an acid etch or sand blast aspect on cementitious material” (GCP Applied Technologies Inc., priority 2018, dated 2025).

Assays:
[1] = Cement binding: percent of species absorbed to cement, by ion chromatography; details: for % adsorbed: 1% acid in 2% KOH solution, 30 g solution on 3 g cement, 10 min; for % binding to cement: Example 6, procedure of Example 1B
Protocol: Each acid was dissolved at 1% by weight in a 2% by weight KOH solution. Thirty grams of solution was exposed to 3 g of Type I/II cement in a tube, and mixed on a tube rotator for 10 min @ 30 rpm. The resulting slurry was centrifuged for 1 min at 4000 rpm to separate the cement and adsorbed compounds from the soluble species. The soluble portion was filtered with a 0.2 micron syringe filter and then analyzed by ion chromatography using an ICS-2100 RFIC by Dionex with single point calibration with a standard at 100 ppm. Samples and standards were prepared in 50 mM KOH solution. Samples' dilutions were adjusted to be within calibration range. Data analysis run through peak area integration.
The cement binding is expressed as a percent of the species present that absorbed to the cement.

[2] = Etch quality of in-form surface retarder on cast concrete after pressure washing; details: for surface etch: Example 6, procedure of Example 2
Protocol: Each was used to make an in-form surface retarder by combining the materials shown below, in the order listed, in a Silverson-high shear rotor-stator mixer at 5000 rpm, and mixing for 10 minutes after the final addition.
The exemplary in-form surface retarder was roller applied in rectangles on a wood form at a rate of 400 ft^2/gallon and allowed to dry for 2 hours at 72° F.
The concrete was poured into the wood form which has the surface retarder paint applied. The concrete was allowed to dry and cure without covering for 22 hours at a temperature of 90° F.
After 22 hours of curing, the concrete was removed from the wood mold and sprayed with high pressure water from a 1900 psi pressure washer to remove the in-form surface retarder and retarded cement paste. Washing continued until water was running clear and no further cement paste is removed (this process removes whatever cement paste that has not hardened to the surface of the concrete due to the retarding effects of the acids tested).

[3] = Table 5: resin in the given solvent
Protocol: The solubility of resin in various organic solvents was evaluated by observation. A small amount of resin (0.2 g) was placed in a vial with 3 mL of the solvent. Observations were made immediately, after two hours and thirty minutes, and after 15 hours.

[4] = Solubility of acids in water, saturated solution measured by Total Organic Carbon; details: in 100 mL water, 25° C., stirred 14 hours, TOC
Protocol: The mixture was allowed to settle and the saturated aqueous solution of acid was decanted. Concentration was measured by Total Organic Carbon using a TOC-L CSH/CSN by Shimadzu. A calibration curve is generate based off a four point calibration of 0 ppm, 25 ppm, 50 ppm, and 100 ppm carbon. Samples are then diluted to a predetermined dilution factor. 20 mL of the diluted samples are acidified to a pH of ^˜2-3 with hydrochloric acid. Samples are run based off the calibration curve performing two 50 uL injections each to determine the total organic carbon of the sample.

[5] = Example 2: retarder with 8 g acid, 400 ft^2/gallon on wood form, concrete cured 22 hours at 90° F., compared to FIG. 1
[6] = Example 3, same procedure as Example 2, tartaric acid forms compared

Compound | % adsorbed [1] [%] | Etch depth [2, 5] | further results
O=C(O)C(O)C(O)C(=O)O (racemic) [DL-Tartaric Acid] | 31.6 | just right, light etch showing sand textures | Etch depth [2, 6]: just right, light etch showing sand textures
NCCCCCCCCCCCC(=O)O [12-Aminododecanoic Acid] | – | – | % binding to cement [1]: 90%; surface etch [2]: very light to none
OB(O)O [Boric Acid by ICP, Boric Acid] | – | – | % binding to cement [1]: 100%
CCCCOC(C)=O [Butyl Acetate] | – | – | Resin solubility [3]: Dissolved
O=C(O)C(O)C(O)C(=O)O (centres unmarked) [D Tartaric Acid] | 29.1 | too deep, coarse aggregates visible | Etch depth [2, 6]: too deep, coarse aggregates visible
O=C[C@H](O)[C@@H](O)[C@H](O)[C@H](O)CO [D-(+)-Glucose] | – | – | % binding to cement [1]: 100%
O=C(O)CN(CCN(CC(=O)O)CC(=O)O)CC(=O)O [Ethylenediamine-tetraacetic] | – | – | % binding to cement [1]: 36%; surface etch [2]: very light to none
O=C(O)CCCC(=O)O [Glutaric Acid] | 0 | just right, light etch showing sand textures | Solubility [4]: 36 g/100 g
O=C(O)C(O)C(O)C(=O)O (centres unmarked) [L Tartaric Acid] | 21.5 | too deep, coarse aggregates visible | Etch depth [2, 6]: too deep, coarse aggregates visible
CC(C(=O)O)C(=O)O [Methymalonic Acid, Methylmalonic acid] | 7.0 | Very light to none | Solubility [4]: 5 g/100 g
O=C(O)c1ccccc1C(=O)O [Phthalic Acid] | 0 | Very light to none | –
O=C(O)/C=C(\CC(=O)O)C(=O)O [trans-Aconitic Acid] | – | – | % binding to cement [1]: 5%
Xylene | – | – | Resin solubility [3]: Dissolved

The next lines start with results.

% adsorbed [1] [%] | Compound | Etch depth [2, 5] | further results
1.1 | O=C(O)CCCCC(=O)O [Adipic Acid] | Lighter than optimum, not even | –
1.9 | C/C(=C/C(=O)O)C(=O)O [Citraconic Acid] | Lighter than optimum, not even | –
6.3 | O=C(O)CC(=O)O [Malonic Acid] | too deep, coarse aggregates visible | –
0 | C/C(=C\C(=O)O)C(=O)O [Mesaconic Acid] | Very light to none | –
94.8 | O=C(O)C(=O)O [Oxalic Acid] | just right, light etch showing sand textures | –
6.4 | O=C(O)CCC(=O)O [Succinic Acid] | Lighter than optimum, not even | –
